Source: patent US7902200B2, “Chemical compounds” (AstraZeneca AB, priority 2006, dated 2011)

target: T1, recombinant human pancreatic GLK (Homo sapiens, UniProt P35557); test: GKH1 variant of GLK enzymatic activity assay (manual bench-top rate assay); assay type: biochemical; settings: activation of GLK; 60 nmol/l GLK; rate over 5 minute window; no GLKRP
T1 construct: 6-His (N); made in house; host or cells: E. coli BL21
T1 sequence (P35557 1-465): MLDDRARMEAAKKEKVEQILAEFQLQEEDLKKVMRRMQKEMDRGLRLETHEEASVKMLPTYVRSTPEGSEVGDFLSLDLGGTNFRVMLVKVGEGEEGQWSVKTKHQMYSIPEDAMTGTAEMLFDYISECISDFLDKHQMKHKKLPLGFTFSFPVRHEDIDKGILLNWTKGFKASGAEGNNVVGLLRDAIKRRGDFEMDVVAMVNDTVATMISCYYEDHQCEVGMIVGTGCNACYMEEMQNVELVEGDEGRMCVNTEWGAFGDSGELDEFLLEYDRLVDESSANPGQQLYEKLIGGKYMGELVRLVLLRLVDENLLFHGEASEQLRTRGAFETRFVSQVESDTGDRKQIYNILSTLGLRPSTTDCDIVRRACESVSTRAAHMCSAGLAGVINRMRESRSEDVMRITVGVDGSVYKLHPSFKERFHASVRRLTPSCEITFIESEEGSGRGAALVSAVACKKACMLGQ
Method: (§1) Enzymatic activity of recombinant human pancreatic GLK may be measured by incubating GLK, ATP and glucose. The rate of product formation may be determined by coupling the assay to a G-6-P dehydrogenase, NADP/NADPH system and measuring the linear increase with time of optical density at 340 nm (Brocklehurst et al (Diabetes 2004, 53, 535-541). Activation of GLK by compounds can be assessed using this assay in the presence or absence of GLKRP as described in Brocklehurst et al (Diabetes 2004, 53, 535-541).
(§2) One or both of two variants of this assay, GKH1 and GKH4, were used to test the compounds of the invention. The GKH1 assay is a manual, bench-top rate assay using 60 nmol/l of recombinant human pancreatic GLK. The GLK activity rate is measured over a 5 minute window using a Multiskan Ascent spectrophotometer. The GKH4 assay is an automated end-point assay using 10 nmol/l of recombinant human pancreatic GLK. The GLK activity is measured at 10 minutes after the initiation of the assay on a Perkin Elmer Envision spectrophotometer.

Row | SMILES | EC50 [nM]
1 | Cc1cnc(NC(=O)c2cc(Oc3ccc(C(=O)N4CCC4)nc3)cc(O[C@H]3CCN(C)C3=O)c2)cn1 [Example 1, 3-[6-(Azetidine-1-carbonyl)pyridin-3-yl]oxy-5-[(3S)-1-methyl-2-oxo-pyrrolidin-3-yl]oxy-N-(5-methylpyrazin-2-yl)benzamide] | 90
2 | Cc1cnc(NC(=O)c2cc(Oc3ccc(C(=O)N4CCC4)nc3)cc(O[C@@H]3CCN(C)C3=O)c2)cn1 [Example 2, 3-[6-(Azetidine-1-carbonyl)pyridin-3-yl]oxy-5-[(3R)-1-methyl-2-oxo-pyrrolidin-3-yl]oxy-N-(5-methylpyrazin-2-yl)benzamide] | 3930
3 | Cc1cnc(NC(=O)c2cc(Oc3ccc4c(c3)OCCN(C)S4(=O)=O)cc(O[C@H]3CCN(C)C3=O)c2)cn1 [Example 11, 3-[(5-methyl-6,6-dioxo-2-oxa-6-λ^6-thia-5-azabicyclo[5.4.0]undeca-8,10,12-trien-10-yl)oxy]-5-(1-methyl-2-oxo-pyrrolidin-3-yl)oxy-N-(5-methylpyrazin-2-yl)benzamide] | 140
4 | CN1CC[C@H](Oc2cc(Oc3ccc(C(=O)N4CCC4)nc3)cc(C(=O)Nc3cnccn3)c2)C1=O [Example 12, 3-[6-(Azetidine-1-carbonyl)pyridin-3-yl]oxy-5-[(3S)-1-methyl-2-oxo-pyrrolidin-3-yl]oxy-N-pyrazin-2-yl-benzamide] | 300
5 | CN1CC[C@H](Oc2cc(Oc3ccc(C(=O)N4CCC4)nc3)cc(C(=O)Nc3ccccn3)c2)C1=O [Example 13, 3-[6-(Azetidine-1-carbonyl)pyridin-3-yl]oxy-5-[(3S)-1-methyl-2-oxo-pyrrolidin-3-yl]oxy-N-pyridin-2-yl-benzamide] | 430

target: T1, recombinant human pancreatic GLK; test: GKH4 variant of GLK enzymatic activity assay (automated end-point assay); assay type: biochemical; settings: activation of GLK; 10 nmol/l GLK; end-point at 10 minutes; no GLKRP
Method: as §1, §2

Row | SMILES | EC50 [nM]
6 | CCN1CCC(Oc2cc(Oc3ccc(C(=O)N4CCC4)nc3)cc(C(=O)Nc3cnc(C)cn3)c2)C1=O (racemic) [Example 10, 3-[6-(Azetidine-1-carbonyl)pyridin-3-yl]oxy-5-(1-ethyl-2-oxo-pyrrolidin-3-yl)oxy-N-(5-methylpyrazin-2-yl)benzamide] | 260
7 | Cc1cnc(NC(=O)c2cc(Oc3ccc(C(=O)N4CCC4)nc3)cc(OC3CCN(C4CCC4)C3=O)c2)cn1 (racemic) [Example 17, 3-[6-(Azetidine-1-carbonyl)pyridin-3-yl]oxy-5-(1-cyclobutyl-2-oxo-pyrrolidin-3-yl)oxy-N-(5-methylpyrazin-2-yl)benzamide] | 600
8 | Cc1cnc(NC(=O)c2cc(Oc3ccc(C(=O)N4CCC4)nc3)cc(O[C@H]3CCN(C)C3=O)c2)cn1 [Example 1, 3-[6-(Azetidine-1-carbonyl)pyridin-3-yl]oxy-5-[(3S)-1-methyl-2-oxo-pyrrolidin-3-yl]oxy-N-(5-methylpyrazin-2-yl)benzamide] | 300
9 | Cc1csc(NC(=O)c2cc(Oc3cnc(C(=O)N4CCC4)cn3)cc(O[C@H]3CCN(C)C3=O)c2)n1 [Example 3, 3-[5-(Azetidine-1-carbonyl)pyrazin-2-yl]oxy-5-[(3S)-1-methyl-2-oxo-pyrrolidin-3-yl]oxy-N-(4-methyl1,3-thiazol-2-yl)benzamide] | 290
10 | Cc1csc(NC(=O)c2cc(Oc3cnc(C(=O)N4CCC4)cn3)cc(O[C@@H]3CCN(C)C3=O)c2)n1 [Example 4, 3-[5-(Azetidine-1-carbonyl)pyrazin-2-yl]oxy-5-[(3R)-1-methyl-2-oxo-pyrrolidin-3-yl]oxy-N-(4-methyl1,3-thiazol-2-yl)benzamide] | 18300
11 | CN1CC[C@H](Oc2cc(Oc3ccc(C(=O)N4CCC4)cc3)cc(C(=O)Nc3cc[nH]n3)c2)C1=O [Example 5, 3-[4-(Azetidine-1-carbonyl)phenoxy]-5-[(3S)-1-methyl-2-oxo-pyrrolidin-3-yl]oxy-N-(1H-pyrazol-3-yl)benzamide] | 150
12 | Cc1cnc(NC(=O)c2cc(Oc3ncc(C(=O)N4CCC4)cc3Cl)cc(O[C@H]3CCN(C)C3=O)c2)cn1 [Example 6, 3-[5-(Azetidine-1-carbonyl)-3-chloro-pyridin-2-yl]oxy-5-[(3S)-1-methyl-2-oxo-pyrrolidin-3-yl]oxy-N-(5-methylpyrazin-2-yl)benzamide] | 190
13 | Cc1cnc(NC(=O)c2cc(Oc3ccc(S(C)(=O)=O)cc3)cc(O[C@H]3CCN(C)C3=O)c2)cn1 [Example 7, 3-[(3S)-1-Methyl-2-oxo-pyrrolidin-3-yl]oxy-N-(5-methylpyrazin-2-yl)-5-(4-methylsulfonylphenoxy)benzamide] | 570
14 | Cc1cnc(NC(=O)c2cc(Oc3ccc(C(=O)N4CCC4)cc3)cc(O[C@H]3CCN(C)C3=O)c2)cn1 [Example 8, 3-[4-(Azetidine-1-carbonyl)phenoxy]-5-[(3S)-1-methyl-2-oxo-pyrrolidin-3-yl]oxy-N-(5-methylpyrazin-2-yl)benzamide] | 190
15 | Cc1cnc(NC(=O)c2cc(Oc3ccc4c(c3)OCCCS4(=O)=O)cc(O[C@H]3CCN(C)C3=O)c2)cn1 [Example 9, 3-[(2,2-Dioxo-6-oxa-2-λ^6-thiabicyclo[5.4.0]undeca-7,9,11-trien-9-yl)oxy]-5-[(3S)-1-methyl-2-oxo-pyrrolidin-3-yl]oxy-N-(5-methylpyrazin-2-yl)benzamide] | 120
16 | Cc1cnc(NC(=O)c2cc(Oc3ccc4c(c3)OCCN(C)S4(=O)=O)cc(O[C@H]3CCN(C)C3=O)c2)cn1 [Example 11, 3-[(5-methyl-6,6-dioxo-2-oxa-6-λ^6-thia-5-azabicyclo[5.4.0]undeca-8,10,12-trien-10-yl)oxy]-5-(1-methyl-2-oxo-pyrrolidin-3-yl)oxy-N-(5-methylpyrazin-2-yl)benzamide] | 310
17 | CN1CC[C@H](Oc2cc(Oc3ccc(C(=O)N4CCC4)nc3)cc(C(=O)Nc3cnccn3)c2)C1=O [Example 12, 3-[6-(Azetidine-1-carbonyl)pyridin-3-yl]oxy-5-[(3S)-1-methyl-2-oxo-pyrrolidin-3-yl]oxy-N-pyrazin-2-yl-benzamide] | 430
18 | CN1CC[C@H](Oc2cc(Oc3ccc(C(=O)N4CCC4)nc3)cc(C(=O)Nc3ccccn3)c2)C1=O [Example 13, 3-[6-(Azetidine-1-carbonyl)pyridin-3-yl]oxy-5-[(3S)-1-methyl-2-oxo-pyrrolidin-3-yl]oxy-N-pyridin-2-yl-benzamide] | 170
19 | Cc1cnc(NC(=O)c2cc(Oc3ccc4c(c3Cl)OCCN(C)C4=O)cc(O[C@H]3CCN(C)C3=O)c2)cn1 [Example 14, 3-[(11-Chloro-5-methyl-6-oxo-2-oxa-5-azabicyclo[5.4.0]undeca-8,10,12-trien-10-yl)oxy]-5-[(3S)-1-methyl-2-oxo-pyrrolidin-3-yl]oxy-N-(5-methylpyrazin-2-yl)benzamide] | 80
20 | Cc1cnc(NC(=O)c2cc(Oc3ccc4c(c3)OCCN(C)C4=O)cc(O[C@H]3CCN(C)C3=O)c2)cn1 [Example 16, 3-[(5-Methyl-6-oxo-2-oxa-5-azabicyclo[5.4.0]undeca-8,10,12-trien-10-yl)oxy]-5-[(3S)-1-methyl-2-oxo-pyrrolidin-3-yl]oxy-N-(5-methylpyrazin-2-yl)benzamide] | 310
21 | Cc1cnc(NC(=O)c2cc(Oc3ccc(C(=O)N4CCC4)nc3)cc(O[C@H]3CCN(C4CC4)C3=O)c2)cn1 [Example 19, 3-[6-(Azetidine-1-carbonyl)pyridin-3-yl]oxy-5-[(3S)-1-cyclopropyl-2-oxo-pyrrolidin-3-yl]oxy-N-(5-methylpyrazin-2-yl)benzamide] | 590
22 | Cc1cnc(NC(=O)c2cc(Oc3ccc(C(=O)N(C)C)cc3Cl)cc(O[C@H]3CCN(C)C3=O)c2)cn1 [Example 26, 3-[2-Chloro-4-(dimethylcarbamoyl)phenoxy]-5-[(3S)-1-methyl-2-oxo-pyrrolidin-3-yl]oxy-N-(5-methylpyrazin-2-yl)benzamide] | 390
23 | Cc1cnc(NC(=O)c2cc(Oc3ccc4c(c3)OCCNS4(=O)=O)cc(O[C@H]3CCN(C)C3=O)c2)cn1 [Example 27, 3-[(6,6-dioxo-2-oxa-6-λ^6-thia-5-azabicyclo[5.4.0]undeca-8,10,12-trien-10-yl)oxy]-5-[(3S)-1-methyl-2-oxo-pyrrolidin-3-yl]oxy-N-(5-methylpyrazin-2-yl)benzamide] | 660
24 | Cc1cnc(NC(=O)c2cc(Oc3ccc(S(C)(=O)=O)nc3)cc(O[C@H]3CCN(C)C3=O)c2)cn1 [Example 28, 3-[(3S)-1-methyl-2-oxo-pyrrolidin-3-yl]oxy-N-(5-methylpyrazin-2-yl)-5-(6-methylsulfonylpyridin-3-yl)oxy-benzamide] | 570
25 | Cc1cnc(NC(=O)c2cc(Oc3ccc(C(=O)N(C)C)nc3)cc(O[C@H]3CCN(C)C3=O)c2)cn1 [Example 29, N,N-dimethyl-5-[3-[(3S)-1-methyl-2-oxo-pyrrolidin-3-yl]oxy-5-[(5-methylpyrazin-2-yl)carbamoyl]phenoxy]pyridine-2-carboxamide] | 100
26 | CN1COc2cc(Oc3cc(O[C@H]4CCN(C)C4=O)cc(C(=O)Nc4cc[nH]n4)c3)ccc2C1=O [Example 30, 3-[(9-methyl-10-oxo-7-oxa-9-azabicyclo[4.4.0]deca-2,4,11-trien-4-yl)oxy]-5-[(3S)-1-methyl-2-oxo-pyrrolidin-3-yl]oxy-N-(1H-pyrazol-3-yl)benzamide] | 60
27 | Cc1nsc(NC(=O)c2cc(Oc3cnc(C(=O)N(C)C)cn3)cc(O[C@H]3CCN(C)C3=O)c2)n1 [Example 31, N,N-dimethyl-5-[3-[(3S)-1-methyl-2-oxo-pyrrolidin-3-yl]oxy-5-[(3-methyl-1,2,4-thiadiazol-5-yl)carbamoyl]phenoxy]pyrazine-2-carboxamide] | 1080
28 | Cc1csc(NC(=O)c2cc(Oc3cnc(C(=O)N(C)C)cn3)cc(O[C@H]3CCN(C)C3=O)c2)n1 [Example 32, N,N-Dimethyl-5-[3-[(3S)-1-methyl-2-oxo-pyrrolidin-3-yl]oxy-5-[(4-methyl-1,3-thiazol-2-yl)carbamoyl]phenoxy]pyrazine-2-carboxamide] | 60
